In patent US10188630B2, “Methods for identifying and using inhibitors of casein kinase 1 epsilon isoform for inhibiting the growth and/or proliferation of MYC-driven tumor cells” (Fred Hutchinson Cancer Research Center, priority 2010, dated 2019) one finds growth inhibition data, which are given here for 1 compound.

For experiment [1], the system named is SK-N-AS (normal MYCN expression). The note with it: 1 μM or 10 μM; 48, 72 and 96 hours. How it is done:
(§1) Cyclopamine, a known natural inhibitor of SHH, was administered to SK-N-AS and IMR-32, to assess the impact of SHH inhibition on cell viability of neuroblastoma cells with normal and amplified MYCN expression, respectively. Cyclopamine was administered to the SK-N-AS and IMR-32 in 1 μM or 10 μM doses, and the growth inhibition was assayed at 48, 72 and 96 hours.

Experiment [2] has as its system IMR-32 (amplified MYCN expression). To be noted: 1 μM or 10 μM; 48, 72 and 96 hours; compared to SK-N-AS. How it is done:
as §1

Regarding `CC1=C2C[C@H]3[C@@H](CC=C4C[C@@H](O)CC[C@@]43C)[C@@H]2CC[C@]12O[C@@H]1C[C@H](C)CN[C@H]1[C@H]2C` [Cyclopamine], the growth inhibition entry is on record as “Growth inhibition was detected” in experiment [1] and “more pronounced” in experiment [2].
